Test results reported in patent US20070155882A1, “Curable liquid composition, cured film, and antistatic laminate” (priority 2003, published 2007).

Assay: Solubility of compound (B) in solvent (solid content of saturated solution)
Format: physicochemical
Method: Specifically, whether a specific solvent is the component (C) or the component (D) is determined depending on the type of the component (B). […] In more detail, the solubility is determined by measuring the solid content of the component (B) in a solution consisting of the component (B) and the solvent.
The supernatant liquid of the resulting mixture was dried on a hot plate at 120° C. for one hour and weighed to calculate the solid content.

[1] = solvent: IPA (isopropyl alcohol)

Row | solubility in solvent (solvent: EtOH (ethanol)) | solubility in solvent [1] | solubility in solvent (solvent: MeOH (methanol)) | solubility in solvent (solvent: water) [wt %] | Compound
1 | 1.8 wt % | 7.1 wt % | 49 wt % | 1.2 | C=CC(=O)OCCn1c(=O)n(CCOC(=O)C=C)c(=O)n(CCOC(=O)C=C)c1=O [Example B-3, Tris(2-hydroxyethyl)isocyanurate triacrylate]
2 | – | ≧50 wt % | ≧50 wt % | – | C=CC(=O)OCC(COCC(COC(=O)C=C)(COC(=O)C=C)COC(=O)C=C)(COC(=O)C=C)COC(=O)C=C [Example B-1, Dipentaerythritol hexaacrylate]
3 | ≧50 wt % | ≧50 wt % | ≧50 wt % | <0.1 | Tricyclodecanediyldimethanol diacrylate [Example B-2]
